Literature values, collected in patent US20120101168A1, “DEUTERIUM ENRICHED RASAGILINE” (priority 2010, published 2012).

Assays:
[1] = target: CYP1A2 (Homo sapiens, UniProt P05177); conditions: forms several primary metabolites
[2] = tested on: MAO; conditions: more potent, but not in-vitro

Chain of CYP1A2 (P05177 whole entry): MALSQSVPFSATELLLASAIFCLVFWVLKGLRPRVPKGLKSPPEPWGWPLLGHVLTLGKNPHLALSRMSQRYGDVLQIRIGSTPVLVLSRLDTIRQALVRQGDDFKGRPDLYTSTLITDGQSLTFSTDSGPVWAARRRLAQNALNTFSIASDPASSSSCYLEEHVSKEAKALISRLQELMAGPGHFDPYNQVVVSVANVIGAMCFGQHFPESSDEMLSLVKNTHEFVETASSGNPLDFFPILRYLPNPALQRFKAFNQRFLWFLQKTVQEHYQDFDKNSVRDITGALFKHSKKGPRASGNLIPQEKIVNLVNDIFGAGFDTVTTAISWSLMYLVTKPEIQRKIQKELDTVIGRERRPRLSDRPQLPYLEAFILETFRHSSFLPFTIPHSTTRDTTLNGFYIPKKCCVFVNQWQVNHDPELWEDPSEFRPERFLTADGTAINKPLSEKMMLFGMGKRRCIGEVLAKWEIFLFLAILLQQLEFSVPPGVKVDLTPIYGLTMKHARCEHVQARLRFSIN

| metabolism by CYP1A2 [1] | SMILES | MAO inhibition potency compared with non-deuterated phenelzine [2] |
| --- | --- | --- |
| slowly metabolized | C#CCN[C@@H]1CCc2ccccc21 [Rasagiline, R(+)-N-propargyl-1-aminoindan] |  |
|  | [2H]C([2H])(NN)C([2H])([2H])c1ccccc1 [deuterated phenelzine] | more potent MAO inhibitor |
